# Assay results taken from PMC9190012, “Heparin activation of protein Z-dependent protease inhibitor (ZPI) allosterically blocks protein Z activation through an extended heparin-binding site” (The Journal of Biological Chemistry, 2022).
# Changes are numbered by the printed parent chain. Where two headings read alike, the source gives them in different places.
# Key:
# NBD-ZPI = molecular target: T1, NBD-ZPI (Homo sapiens, UniProt Q9UK55, C190A/C285S/K260C); test: Competitive binding titrations of NBD-ZPI–PZ complex with heparins (quenching of NBD fluorescence); settings: competitive titration of NBD-ZPI–PZ complex (50 nM ZPI/62 nM PZ), 0.1 M NaCl buffer; read-out: ZPI–heparin KD,H
# T1 construct: made in house; host or cells: Escherichia coli
# T1 sequence (Q9UK55 22-444 C190A/K260C/C285S): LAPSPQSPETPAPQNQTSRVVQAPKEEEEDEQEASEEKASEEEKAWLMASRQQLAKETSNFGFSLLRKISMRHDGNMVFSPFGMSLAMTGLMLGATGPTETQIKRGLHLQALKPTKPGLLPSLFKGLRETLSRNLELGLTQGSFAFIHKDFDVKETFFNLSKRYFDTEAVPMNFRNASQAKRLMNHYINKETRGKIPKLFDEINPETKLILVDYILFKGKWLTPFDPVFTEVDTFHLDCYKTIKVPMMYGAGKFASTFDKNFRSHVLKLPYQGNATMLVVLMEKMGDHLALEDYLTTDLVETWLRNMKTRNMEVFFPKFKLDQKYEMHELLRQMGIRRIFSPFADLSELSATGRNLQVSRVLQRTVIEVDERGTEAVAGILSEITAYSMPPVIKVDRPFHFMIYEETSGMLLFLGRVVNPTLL
# Method: Equilibrium binding of heparin to NBD-ZPI was measured by competitive binding titrations in which heparins of various lengths were titrated into NBD-ZPI (50 nM) complexed with a molar excess of PZ (62 nM) in a lower ionic strength buffer (0.1 M NaCl) and heparin binding followed by the quenching of NBD-ZPI–PZ complex fluorescence. Titrations were computer fit by the competitive binding equation, ΔFmax−ΔFobs/ΔFmax=Fobs−F∞/F0−F∞=[ZPI]0+[PZ]0+KD,PZ×(1+[H]0/KD,H)−([ZPI]0+[PZ]0+KD,PZ×(1+[H]0/KD,H))^2−4×[ZPI]0×[PZ]0/[ZPI]0+[PZ]0+KD,PZ−([ZPI]0+[PZ]0+KD,PZ)^2−4×[ZPI]0×[PZ]0
# in which ΔFobs is the observed change in fluorescence of PZ complexed and uncomplexed NBD-ZPI before (Fo) and after heparin addition (Fobs), ΔFmax is the maximal fluorescence change upon reaching the end point fluorescence of NBD-ZPI after complete dissociation of PZ (F∞), [ZPI]o, [PZ]o, and [H]o are total concentrations of NBD-ZPI, PZ, and heparin, respectively, and KD,PZ and KD,H are dissociation constants for the NBD-ZPI–PZ and the NBD-ZPI–heparin interactions, respectively. […] In fitting data to the aforementioned equation, KD,PZ was fixed at the value determined by titration of NBD-ZPI with PZ in the absence of heparin, and KD,H was the fitted parameter.
# NBD-ZPI–PZ interactions = molecular target: T2, NBD-ZPI–PZ interactions (Homo sapiens, UniProt Q9UK55, C190A/C285S/K260C); test: Titrations of NBD-ZPI with PZ in absence and presence of fixed levels of heparin; assay type: binding; settings: read-out: ZPI–heparin KD,H (predicted)
# T2 construct: made in house; host or cells: Escherichia coli
# T2 sequence (Q9UK55 22-444 C190A/K260C/C285S): T1 sequence (Q9UK55 22-444 C190A/K260C/C285S)
# Method: The effect of heparin on PZ binding to ZPI was measured by titrations of 50 nM NBD-ZPI with PZ in the absence and presence of different fixed levels of heparins of various lengths in the higher ionic strength buffer used for emission spectra. Titrations were monitored from the enhancement of NBD-ZPI fluorescence that signals PZ binding. These titrations were fit by the quadratic binding equation, ΔFobs/F0=ΔFmax/F0×[ZPI]0+[PZ]0+KD,PZapp−([ZPI]0+[PZ]0+KD,PZapp)^2−4×[ZPI]0×[PZ]0/2×[ZPI]0 where ΔFobs/Fo and ΔFmax/Fo are the observed and maximal fluorescence changes after addition of PZ expressed relative to the initial free NBD-ZPI fluorescence, respectively, and KD,PZapp = KD,PZ × (1 + [H]o/KD,H) is the apparent dissociation constant for the ZPI–PZ interaction in the absence or presence of heparin. The fitted parameters were KD,PZapp and ΔFmax/Fo.
# [1] = molecular target: T3, helix C site mutant ZPI (K104A/R105A/K113A/K116A) (Homo sapiens, UniProt Q9UK55, K125A/K134A/K137A/R126A); test: Direct heparin binding titrations monitored by intrinsic protein fluorescence quenching; settings: 1 μM helix C site mutant ZPI; quenching end point fixed at WT
# T3 construct: made in house; host or cells: Escherichia coli
# T3 sequence (Q9UK55 22-444 K125A/R126A/K134A/K137A): T1 sequence (Q9UK55 22-444 C190A/K260C/C285S) with K104A, R105A, K113A, K116A, A169C, C239K, S264C
# Method: Fluorescence emission spectra of NBD-ZPI (50–100 nM) were measured in the absence or the presence of PZ and heparin in 20 mM Tris buffer (pH 7.4), 0.2 M NaCl, 0.1% PEG 8000, 1 mg/ml bovine serum albumin (BSA), and 2.5 mM CaCl2 with an SLM 8000 spectrofluorometer with excitation at 480 nm over the emission range of 500 to 600 nm. Intrinsic protein fluorescence of WT and mutant ZPIs (200 nM to 1 μM) was measured in the same buffer without BSA, with excitation at 280 nm over the emission range of 300 to 400 nm. Emission was monitored in 5-nm steps with 5 to 10 s of integrations per step. Spectra were obtained in triplicate and averaged. Buffer, buffer plus PZ, or buffer plus heparin background spectra were subtracted, and dilution corrections were made for added PZ or heparin (<10%). Direct equilibrium binding of heparin to ZPI was measured by titrations of unlabeled WT and variant ZPIs (0.2–1 μM) with heparin monitored by the quenching of intrinsic protein fluorescence accompanying heparin binding at excitation and emission wavelengths of 280 and 340 nm, respectively. Titrations were computer fit by the aforementioned quadratic binding equation with [H]o replacing [PZ]o and KD,H replacing KD,PZapp.
smiles,measurement,setting,value
"CO[C@H]1O[C@H](COS(=O)(=O)O)[C@@H](O[C@@H]2O[C@@H](C(=O)O)[C@@H](O[C@H]3O[C@H](COS(=O)(=O)O)[C@@H](O[C@@H]4O[C@H](C(=O)O)[C@@H](O[C@H]5O[C@H](COS(=O)(=O)O)[C@@H](O)[C@H](O)[C@H]5NS(=O)(=O)O)[C@H](O)[C@H]4O)[C@H](OS(=O)(=O)O)[C@H]3NS(=O)(=O)O)[C@H](O)[C@H]2OS(=O)(=O)O)[C@H](O)[C@H]1NS(=O)(=O)O [H5, fondaparinux]",Kd,NBD-ZPI,32.4 ± 1.9 µM
same,Kd,"NBD-ZPI–PZ interactions; calculated from KD,PZapp at 211 μM heparin",53 µM
same,Kd,"NBD-ZPI–PZ interactions; calculated from KD,PZapp at 423 μM heparin",44 µM
same,Kd,[1],1.9 ± 0.2 mM
